Data published in patent publication US12029748B2, “Synergistic composition for maintenance of healthy balance of microflora” (KIMBERLY-CLARK WORLDWIDE, INC., priority 2017, dated 2024).
Where a SMILES comes first, the peptide text is derived from it.

Columns and labels:
[1] = Initial pH screening of the composition; assay type: physicochemical; details: for I pH (initial pH), 0.10%: nitrogen compound 0.10 wt/vol % with 1.0 wt/vol % α methyl-D glucoside in medium; for I pH (initial pH), 0.50%: nitrogen compound 0.50 wt/vol % with 1.0 wt/vol % α methyl-D glucoside in medium; for I pH (initial pH), 1.00%: nitrogen compound 1.00 wt/vol % with 1.0 wt/vol % α methyl-D glucoside in medium
Excerpt: Each composition in Table 1 went through initial screening measures of solubility and initial pH (“I pH”). […] When a specific concentration of a nitrogen containing compound was insoluble, the initial and final pH (“F pH”) of the combined composition was not measured and accordingly are each marked as “NM.” Additionally, initial pH of the composition was checked as a screening measure. The initial pH was marked as either Low (“L”), High (“H”), or Pass (“P”). A Low initial pH corresponds to an initial pH being less than 5.5, a High initial pH corresponds to an initial pH being greater than 6.5, and a Pass initial pH corresponds to the pH being at or between 5.5-6.5. […] As part of the Therapeutic Effect Protocol, a final pH was also measured after the compositions that were tested against the Lactobacillus and E. coli.
(§1) All of the ingredients in Table 2 were combined and the pH was adjusted to 6.5. […] To evaluate the effect of various nitrogen containing therapeutic agents on the growth of bacteria, the LAPT-g media, prepared as described above, was supplemented with various nitrogen containing compound therapeutic agents to a final test concentration between 0.1 and 1.0%. As initial screening measures, solubility and initial pH of each composition were checked. If a specific composition was insoluble (as detected by visual indication of precipitates or turbidity), then no further therapeutic efficacy testing was undertaken on that composition. Additionally, if the initial pH of the composition was below 5.5 (“Low”) or was above 6.5 (“High”), then no further therapeutic efficacy testing was undertaken on that composition.

L. crispatus and E. coli = experiment: Therapeutic Effect Protocol: L. crispatus / E. coli co-culture, ratio after 36 hours; assay type: cell-based, Lactobacillus crispatus; E. coli; details: for Therapeutic Efficacy Results (Lactobacillus/E. coli) 0.10%: nitrogen compound 0.10 wt/vol % with 1.0 wt/vol % α methyl-D glucoside (10:1); for Therapeutic Efficacy Results (Lactobacillus/E. coli) 0.10% / Therapeutic Efficacy Results (Lactobacillus/E. coli) 0.50% / Therapeutic Efficacy Results (Lactobacillus/E. coli) 1.00%: 36 hours anaerobic co-culture, 37° C.; for Therapeutic Efficacy Results (Lactobacillus/E. coli) 0.50%: nitrogen compound 0.50 wt/vol % with 1.0 wt/vol % α methyl-D glucoside (2:1); for Therapeutic Efficacy Results (Lactobacillus/E. coli) 1.00%: nitrogen compound 1.00 wt/vol % with 1.0 wt/vol % α methyl-D glucoside (1:1); for Therapeutic effect when ratio α methyl-D glucoside : nitrogen compound is at least about 2:1, but not at 1:1 / Therapeutic effect at ratio 2:1 and 10:1, but not at 1:1: with α methyl-D glucoside; for Therapeutic effect when ratio α methyl-D glucoside : nitrogen compound is at least about 2:1, but not at 1:1: ratio at least about 2:1, not 1:1; for Therapeutic effect at ratio 2:1 and 10:1, but not at 1:1: ratios 2:1 and 10:1, not 1:1
Description: As used herein the term “therapeutic effect” refers to the ability of the compositions and formulations of the present invention to stimulate the growth of Lactobacillus relative E. coli measured according to the Therapeutic Effect Protocol described below. Generally, therapeutic effect is expressed as a ratio of Lactobacillus to E. coli and is desirably greater than about 2, more preferably greater than about 20 and more desirably greater than about 100.
The data in Table 1 was tested according to the Therapeutic Effect Protocol as described further herein. The nitrogen compounds were tested for their therapeutic efficacy at three different concentrations when combined with α methyl-D glucoside (1% wt/vol %). The concentrations of the nitrogen containing compounds that were tested were 1% wt/vol %, 0.5% wt/vol %, and 0.1% wt/vol %.
Colonies of L. crispatus and E. coli were prepared as follows. A colony of L. crispatus was transferred to 7 ml de Man, Rogosa & Sharpe (MRS) broth and incubated anaerobically (using BD GasPak EZ anaerobe container system with indicator) at 37° C. without shaking for 18-20 hours. A colony of E. coli was transferred to 5 ml Tryptic Soy Broth (TSB) and incubated aerobically (shaking at 100 rpm) at 37° C. for 18-20 hours.
Colonies were then inoculated as follows. Bacterial cultures were gently vortexed and 1 mL of each culture was transferred to a corresponding 2.0 mL micro-centrifuge tube and then centrifuged for two minutes at 14,500 rpm. The cultural supernatant was removed and the cell pellet was re-suspended in 1 mL of 0.95% (wt/vol %) saline. […] For L. crispatus, the pellet was re-suspended in 1 mL of 0.95% saline to achieve ˜10^7-10^8 cfu/mL. For E. coli, the pellet was re-suspended in 1 mL of 0.95% saline to achieve ˜10^8-10^9 cfu/mL.
Media were prepared as follows.
as §1
Five milliliters (5 mL) of each medium was transferred to a test tube in duplicates for subsequent inoculation. A master mixture of L. crispatus and E. coli, prepared as described above, was prepared in 1,000:1 ratio. Each (5 ml) test tube was inoculated with the master mixture to give 10^5-10^6 total CFU L. crispatus and 100-1,000 total CFU E. coli per tube.
To establish a negative control, one tube was vortexed and 100 μL was removed to determine the initial cell concentrations by serial dilutions and plating (2 plates per dilution). L. crispatus is selected on MRS agar plates incubated anaerobically at 37° C. for two days. E. coli is selected on TSA plates incubated aerobically at 37° C. for one day. The co-cultures were incubated in an anaerobic container with BD GasPaks at 37° C. for 36 hours.
The effect of the α methyl-D glucoside and the nitrogen containing compound therapeutic agents on the ratio of L. crispatus to E. coli was measured 36 hours after inoculation and a final pH of the test solutions was recorded. The co-culture tube was vortexed and 100 μL was removed to determine the final cell concentrations by serial dilutions and plating (2 plates per dilution). L. crispatus is selected on MRS agar plates incubated anaerobically at 37° C. for two days.

Compound: Cl.N[C@@H]1C(O)O[C@H](CO)[C@@H](O)[C@@H]1O (stereo partly drawn) [D-mannosamine HCl]
- I pH (initial pH), 0.10% [1]: P (a Pass initial pH corresponds to the pH being at or between 5.5-6.5)
- I pH (initial pH), 0.50% [1]: P (a Pass initial pH corresponds to the pH being at or between 5.5-6.5)
- I pH (initial pH), 1.00% [1]: P (a Pass initial pH corresponds to the pH being at or between 5.5-6.5)
- Therapeutic Efficacy Results (Lactobacillus/E. coli) 0.10% (L. crispatus and E. coli): 0.202
- Therapeutic Efficacy Results (Lactobacillus/E. coli) 0.50% (L. crispatus and E. coli): 84
- Therapeutic Efficacy Results (Lactobacillus/E. coli) 1.00% (L. crispatus and E. coli): 0.96
- Therapeutic effect when ratio α methyl-D glucoside : nitrogen compound is at least about 2:1, but not at 1:1 (L. crispatus and E. coli): provided a therapeutic effect

Compound: CC(O)C(N)=O (stereo not drawn) [DL Lactamide]
- I pH (initial pH), 0.10% [1]: P (a Pass initial pH corresponds to the pH being at or between 5.5-6.5)
- I pH (initial pH), 0.50% [1]: P (a Pass initial pH corresponds to the pH being at or between 5.5-6.5)
- I pH (initial pH), 1.00% [1]: P (a Pass initial pH corresponds to the pH being at or between 5.5-6.5)
- Therapeutic Efficacy Results (Lactobacillus/E. coli) 0.10% (L. crispatus and E. coli): 7.52
- Therapeutic Efficacy Results (Lactobacillus/E. coli) 0.50% (L. crispatus and E. coli): >1330
- Therapeutic Efficacy Results (Lactobacillus/E. coli) 1.00% (L. crispatus and E. coli): 0.8
- Therapeutic effect when ratio α methyl-D glucoside : nitrogen compound is at least about 2:1, but not at 1:1 (L. crispatus and E. coli): provided a therapeutic effect
- Therapeutic effect at ratio 2:1 and 10:1, but not at 1:1 (L. crispatus and E. coli): provided a therapeutic effect

Compound: NCC(=O)N[C@@H](CC(N)=O)C(=O)O [Gly-Asn] (H-Gly-Asn-OH)
- I pH (initial pH), 0.10% [1]: P (a Pass initial pH corresponds to the pH being at or between 5.5-6.5)
- I pH (initial pH), 0.50% [1]: P (a Pass initial pH corresponds to the pH being at or between 5.5-6.5)
- I pH (initial pH), 1.00% [1]: P (a Pass initial pH corresponds to the pH being at or between 5.5-6.5)
- Therapeutic Efficacy Results (Lactobacillus/E. coli) 0.10% (L. crispatus and E. coli): 108
- Therapeutic Efficacy Results (Lactobacillus/E. coli) 0.50% (L. crispatus and E. coli): >1.58E+04
- Therapeutic Efficacy Results (Lactobacillus/E. coli) 1.00% (L. crispatus and E. coli): 1.3
- Therapeutic effect when ratio α methyl-D glucoside : nitrogen compound is at least about 2:1, but not at 1:1 (L. crispatus and E. coli): provided a therapeutic effect
- Therapeutic effect at ratio 2:1 and 10:1, but not at 1:1 (L. crispatus and E. coli): provided a therapeutic effect

Compound: NCC(=O)N[C@@H](CCC(N)=O)C(=O)O.O [Gly-Gln] (H-Gly-Gln-OH)
- I pH (initial pH), 0.10% [1]: P (a Pass initial pH corresponds to the pH being at or between 5.5-6.5)
- I pH (initial pH), 0.50% [1]: P (a Pass initial pH corresponds to the pH being at or between 5.5-6.5)
- I pH (initial pH), 1.00% [1]: P (a Pass initial pH corresponds to the pH being at or between 5.5-6.5)
- Therapeutic Efficacy Results (Lactobacillus/E. coli) 0.10% (L. crispatus and E. coli): 8.57
- Therapeutic Efficacy Results (Lactobacillus/E. coli) 0.50% (L. crispatus and E. coli): >189
- Therapeutic Efficacy Results (Lactobacillus/E. coli) 1.00% (L. crispatus and E. coli): 0.38
- Therapeutic effect when ratio α methyl-D glucoside : nitrogen compound is at least about 2:1, but not at 1:1 (L. crispatus and E. coli): provided a therapeutic effect
- Therapeutic effect at ratio 2:1 and 10:1, but not at 1:1 (L. crispatus and E. coli): provided a therapeutic effect

Compound: NCC(=O)N[C@@H](CCC(=O)O)C(=O)O [Gly-Glu] (H-Gly-Glu-OH)
- I pH (initial pH), 0.10% [1]: P (a Pass initial pH corresponds to the pH being at or between 5.5-6.5)
- I pH (initial pH), 0.50% [1]: L (A Low initial pH corresponds to an initial pH being less than 5.5)
- I pH (initial pH), 1.00% [1]: L (A Low initial pH corresponds to an initial pH being less than 5.5)
- Therapeutic Efficacy Results (Lactobacillus/E. coli) 0.10% (L. crispatus and E. coli): 6.83
- Therapeutic effect when ratio α methyl-D glucoside : nitrogen compound is at least about 2:1, but not at 1:1 (L. crispatus and E. coli): provided a therapeutic effect
